Patent US11420944B2, “Voltage-dependent t-type calcium channel blocker” (Nippon Chemiphar Co., Ltd., priority 2016, dated 2022)
Where two headings read alike, the source gives them in different places.

Assays:
[1] = molecular target: T1, human Cav3.2 channels (Homo sapiens, UniProt O95180); experiment: Intracellular calcium concentration measurement (Fluo-4 AM) in stable cells expressing human Cav3.2 channels, buffer A / buffer B; type: cell-based
T1 construct: expressed in transfected cells; host or cells: HEK293 cells (ATCC No. CRL-1573), plasmid pcDNA3.1(+)
Procedure, shortened: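 HEK293 cells stably expressing human Cav3.2, Fluo-4 loaded, preincubated 15 min at room temperature with compound (0.1% DMSO final) in buffer A (K+ equilibrium −92 mV) or B (−110 mV). After ionophore, KCl (83.8 or 91.8 mM) stimulus; 10 s fluorescence rise (ex 485/em 510 nm) gave % inhibition and IC50.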

[2] = molecular target: T1, human Cav3.2 channels; experiment: Electrophysiological evaluation, whole-cell patch-clamp with automatic patch-clamp system; type: cell-based; conditions: for inhibition at 0.3 µM: holding potential −80 mV, read-out: Cav3.2 channel current inhibition ratio at 0.3 μM of test compound (holding potential −80 mV)
Procedure, shortened: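 Stable human Cav3.2 cell line, automated whole-cell patch clamp at room temperature. Peak inward current on 100 msec steps to −20 mV every 10 sec; five concentrations applied cumulatively by perfusion. Inhibition scored at 0.3 μM compound from −80 mV holding, or 3 μM from −100 mV.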

[3] = molecular target: T2, CYP3A4 (Homo sapiens, UniProt P08684); experiment: Evaluation of CYP3A4 activity inhibitory action; type: in vitro ADME; conditions: Human CYP3A4BR EasyCYP Bactosomes, 7-Benzyloxy-4-(trifluoromethyl)-coumarin
T2 construct: purchased Cypex, Ltd; host or cells: E. coli membranes (Bactosomes)
Experimental: Evaluation of CYP3A4 Activity Inhibitory Action
To a 50 mM potassium phosphate buffer solution (pH 7.4), 5 nM Human CYP3A4BR EasyCYP Bactosomes (Cypex, Ltd.), 50 μM 7-Benzyloxy-4-(trifluoromethyl)-coumarin, cofactor mix (0.0081 mM β-NADP^+, 0.4 mM G-6-P, 0.4 mM MgCl2, and 0.2 U/mL G-6-P DH(Y)), and 0.01% Pluronic F-127 were added, and the mixture was incubated for 45 minutes at 37° C. The reaction was initiated by adding the cofactor mix. After the incubation, 0.5 M Tris base/acetonitrile (20:80) was added thereto as a reaction terminating liquid, and the resulting mixture was stirred. Subsequently, the fluorescence intensity (excitation: 405 nm, emission: 535 nm) was measured. The reaction was carried out in duplicate. The results are presented as the inhibition rate at 10 μM of the test compound.

[4] = system: mouse partial sciatic nerve ligation (PSNL) model; experiment: Mechanical allodynia in a mouse partial sciatic nerve ligation (PSNL) model, intraperitoneal administration; type: in vivo; conditions: intraperitoneally administered, 20 to 30 mg/kg, compared to the vehicle group
Experimental: Mechanical Allodynia in a Mouse Partial Sciatic Nerve Ligation (PSNL) Model
(§1) Production of a mouse PSNL model was carried out according to the method of Seltzer, et al. A mouse was subjected to inhalation anesthesia with isoflurane. The femoral region of the mouse was shaved and disinfected with isodine. The skin on the thighbone of the mouse was incised, the fascia underneath the skin was cut, and the biceps femoris muscle was divided at a site between the heads of muscles. The sciatic nerve underneath the incision was checked, and then the sciatic nerve was detached without damaging the nerve. The needle of an 8-0 silk suture with a needle was passed through the sciatic nerve so as to penetrate through the nerve, and thus a portion of about ½ to ⅓ of the sciatic nerve was ligated. The skin was sutured, and the mouse was kept for about 7 days. The surgery of a Sham control mouse was performed only for checking of the sciatic nerve, and the skin was sutured.
(§2) The measurement of pain threshold was carried out after the mouse was transferred into a cage for measurement and was waited until exploratory behavior had disappeared. […] The 50% threshold was calculated by an up-down method by referring to the method of Chaplan, et al. (Quantitative assessment of tactile allodynia in the […]. J Neurosci Methods, 53, 1994, 55-63). […]

[5] = system: mouse PSNL model; experiment: Mechanical allodynia in mouse PSNL model, peroral administration; type: in vivo; conditions: perorally administered, 10 mg/kg and 30 mg/kg, compared to the vehicle group
Experimental: Mechanical Allodynia in Mouse PSNL Model
as §1, §2

[6] = Tables 2 to 6, buffer A, equilibrium potential of potassium −92 mV, read-out: Inhibitory action of buffer A (inactivated state)

T2 sequence (P08684 whole entry): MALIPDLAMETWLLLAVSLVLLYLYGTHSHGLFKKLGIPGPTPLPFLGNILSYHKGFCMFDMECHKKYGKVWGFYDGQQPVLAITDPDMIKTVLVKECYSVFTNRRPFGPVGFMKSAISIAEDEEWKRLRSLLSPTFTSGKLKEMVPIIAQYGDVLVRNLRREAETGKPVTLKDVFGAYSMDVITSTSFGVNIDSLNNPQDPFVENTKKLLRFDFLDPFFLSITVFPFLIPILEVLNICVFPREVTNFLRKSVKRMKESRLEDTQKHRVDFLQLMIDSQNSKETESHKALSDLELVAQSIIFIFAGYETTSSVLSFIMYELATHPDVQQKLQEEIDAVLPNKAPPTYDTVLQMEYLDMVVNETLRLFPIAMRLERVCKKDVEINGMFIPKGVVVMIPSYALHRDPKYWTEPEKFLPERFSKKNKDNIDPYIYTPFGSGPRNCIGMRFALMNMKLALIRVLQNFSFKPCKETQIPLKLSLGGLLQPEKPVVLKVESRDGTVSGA
T1 sequence (O95180 whole entry): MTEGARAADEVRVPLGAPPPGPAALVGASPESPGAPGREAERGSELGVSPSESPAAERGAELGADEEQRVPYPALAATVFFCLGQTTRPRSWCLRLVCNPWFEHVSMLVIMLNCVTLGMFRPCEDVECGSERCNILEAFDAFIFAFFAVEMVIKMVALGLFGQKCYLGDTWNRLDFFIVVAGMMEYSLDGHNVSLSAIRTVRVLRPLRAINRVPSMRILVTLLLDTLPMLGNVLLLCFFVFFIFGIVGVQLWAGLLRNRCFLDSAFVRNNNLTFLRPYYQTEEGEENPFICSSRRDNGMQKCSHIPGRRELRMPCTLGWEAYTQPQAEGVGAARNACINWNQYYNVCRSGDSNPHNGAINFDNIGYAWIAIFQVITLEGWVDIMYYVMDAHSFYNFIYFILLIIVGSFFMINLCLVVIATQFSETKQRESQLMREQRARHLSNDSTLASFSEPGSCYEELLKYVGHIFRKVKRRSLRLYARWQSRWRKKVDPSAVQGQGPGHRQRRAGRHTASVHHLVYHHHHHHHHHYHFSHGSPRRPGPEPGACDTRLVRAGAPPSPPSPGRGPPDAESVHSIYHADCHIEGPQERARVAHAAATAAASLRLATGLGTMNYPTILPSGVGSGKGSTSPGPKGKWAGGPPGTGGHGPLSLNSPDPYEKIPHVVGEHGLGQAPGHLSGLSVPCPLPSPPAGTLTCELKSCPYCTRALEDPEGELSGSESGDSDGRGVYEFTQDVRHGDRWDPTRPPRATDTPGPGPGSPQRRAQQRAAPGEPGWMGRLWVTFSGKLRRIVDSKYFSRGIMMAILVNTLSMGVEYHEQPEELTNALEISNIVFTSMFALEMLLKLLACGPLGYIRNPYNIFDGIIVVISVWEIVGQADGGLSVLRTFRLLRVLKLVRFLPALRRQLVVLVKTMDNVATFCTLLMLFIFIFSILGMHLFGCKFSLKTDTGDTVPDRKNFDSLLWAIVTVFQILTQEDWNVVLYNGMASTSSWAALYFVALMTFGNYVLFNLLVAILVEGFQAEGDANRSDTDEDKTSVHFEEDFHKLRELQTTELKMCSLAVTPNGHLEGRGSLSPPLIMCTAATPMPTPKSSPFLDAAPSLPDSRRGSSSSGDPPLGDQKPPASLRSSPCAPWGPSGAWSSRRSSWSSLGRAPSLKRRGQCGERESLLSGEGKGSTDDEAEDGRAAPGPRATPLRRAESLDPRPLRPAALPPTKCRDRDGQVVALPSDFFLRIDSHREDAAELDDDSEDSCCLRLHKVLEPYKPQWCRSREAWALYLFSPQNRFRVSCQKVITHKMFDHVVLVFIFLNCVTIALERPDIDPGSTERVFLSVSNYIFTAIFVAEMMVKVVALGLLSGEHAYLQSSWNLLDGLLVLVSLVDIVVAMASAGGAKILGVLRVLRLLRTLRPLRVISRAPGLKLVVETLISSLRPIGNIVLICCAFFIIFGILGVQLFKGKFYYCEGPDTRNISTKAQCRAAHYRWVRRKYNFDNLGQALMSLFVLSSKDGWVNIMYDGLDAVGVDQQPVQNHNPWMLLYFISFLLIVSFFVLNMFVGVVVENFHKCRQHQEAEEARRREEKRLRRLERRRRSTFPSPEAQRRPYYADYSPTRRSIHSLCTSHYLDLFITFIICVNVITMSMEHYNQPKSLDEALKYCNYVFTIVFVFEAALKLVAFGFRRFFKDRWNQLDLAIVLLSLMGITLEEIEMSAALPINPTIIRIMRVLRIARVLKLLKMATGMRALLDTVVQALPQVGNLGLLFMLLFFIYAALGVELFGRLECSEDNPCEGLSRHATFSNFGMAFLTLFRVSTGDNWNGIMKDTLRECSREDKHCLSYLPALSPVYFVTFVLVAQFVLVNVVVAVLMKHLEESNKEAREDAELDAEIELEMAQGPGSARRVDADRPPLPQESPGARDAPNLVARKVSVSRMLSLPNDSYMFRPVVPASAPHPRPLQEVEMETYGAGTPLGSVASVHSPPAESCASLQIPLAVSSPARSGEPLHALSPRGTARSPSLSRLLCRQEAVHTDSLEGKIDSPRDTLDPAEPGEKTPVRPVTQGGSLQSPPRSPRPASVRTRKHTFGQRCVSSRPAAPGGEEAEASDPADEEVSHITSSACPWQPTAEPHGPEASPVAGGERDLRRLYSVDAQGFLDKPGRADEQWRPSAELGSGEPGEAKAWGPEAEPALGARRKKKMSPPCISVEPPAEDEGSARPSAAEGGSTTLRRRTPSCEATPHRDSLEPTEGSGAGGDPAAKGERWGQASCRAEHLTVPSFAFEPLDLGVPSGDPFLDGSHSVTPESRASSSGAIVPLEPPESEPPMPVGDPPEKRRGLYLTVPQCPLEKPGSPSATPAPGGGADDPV

Row | SMILES | IC50 ([1]; Table 1, buffer A, equilibrium potential of potassium −92 mV, read-out: Inhibitory action of buffer A (inactivated state)) | IC50 ([1]; Table 1, buffer B, equilibrium potential of potassium −110 mV, read-out: Inhibitory action of buffer B (resting state or closed state)) | inhibition at 0.3 µM [2] | Cav3.2 channel current inhibition ratio at 3 μM of test compound (holding potential −100 mV) [2] | CYP3A4 activity inhibition ratio at 10 μM of test compound [3] | IC50 [1, 6] | mechanical allodynia (pain threshold, von Frey filament test) [4] | mechanical allodynia (pain threshold, von Frey filament test) [5]
1 | C[C@@H](NC(=O)C1CC1c1nc2ccccc2[nH]1)c1ccc(OCC(F)(F)F)s1 (single isomer, unassigned) [Example 3A] | ≤ 100 nM | > 10000 nM | 60% | 13% | 12.7% | – | suppressed mechanical allodynia statistically significantly | –
2 | C[C@@H](NC(=O)[C@H]1C[C@@H]1c1nc2ccccc2[nH]1)c1nc2cc(F)ccc2o1 [Example 105, (1S,2S)-2-(1H-benzo[d]imidazol-2-yl)-N—((R)-1-(5-fluorobenzo[d]oxazol-2-yl)ethyl)cyclopropane-1-carboxamide] | – | – | 58% | – | 21.2% | 100 to 1000 nM | – | –
3 | C[C@@H](NC(=O)[C@H]1C[C@@H]1c1nc2ccccc2[nH]1)c1nc2ccc(F)cc2o1 [Example 114, (1S,2S)-2-(1H-benzo[d]imidazol-2-yl)-N—((R)-1-(6-fluorobenzo[d]oxazol-2-yl)ethyl)cyclopropane-1-carboxamide] | – | – | 32% | – | 30.0% | 100 to 1000 nM | – | –

Continued, in another order:

Row | IC50 ([1]; Table 1, buffer A, equilibrium potential of potassium −92 mV, read-out: Inhibitory action of buffer A (inactivated state)) | IC50 ([1]; Table 1, buffer B, equilibrium potential of potassium −110 mV, read-out: Inhibitory action of buffer B (resting state or closed state)) | inhibition at 0.3 µM [2] | Cav3.2 channel current inhibition ratio at 3 μM of test compound (holding potential −100 mV) [2] | CYP3A4 activity inhibition ratio at 10 μM of test compound [3] | IC50 [1, 6] | SMILES | mechanical allodynia (pain threshold, von Frey filament test) [4] | mechanical allodynia (pain threshold, von Frey filament test) [5]
4 | – | – | 81% | 49% | 4.2% | ≤ 100 nM | C[C@@H](NC(=O)[C@H]1C[C@@H]1c1nc2ccccc2[nH]1)c1cc2cc(F)ccc2o1 [Example 65, (1S,2S)-2-(1H-benzo[d]imidazol-2-yl)-N—((R)-1-(5-fluorobenzofuran-2-yl)ethyl)cyclopropane-1-carboxamide] | – | suppressed mechanical allodynia statistically significantly
5 | – | – | 74% | – | 23.6% | ≤ 100 nM | C[C@@H](NC(=O)[C@H]1C[C@@H]1c1nc2ccccc2[nH]1)c1cc2c(F)cc(F)cc2o1 [Example 92, (1S,2S)-2-(1H-benzo[d]imidazol-2-yl)-N—((R)-1-(4,6-difluorobenzofuran-2-yl)ethyl)cyclopropane-1-carboxamide] | – | –
6 | – | – | 90% | 52% | 27.9% | ≤ 100 nM | C[C@@H](NC(=O)[C@H]1C[C@@H]1c1nc2ccccc2[nH]1)c1cc2ccc(F)cc2o1 [Example 100, (1S,2S)-2-(1H-benzo[d]imidazol-2-yl)-N—((R)-1-(6-fluorobenzofuran-2-yl)ethyl)cyclopropane-1-carboxamide] | – | –
